Key:
[1] = cited from earlier work; for Physiological Charge: physiological pH
Human plasma = assay: in vitro
Description: (§1) Protein Binding by BioSPME was studied. A 96-pin device was prepared with an […] pre-coating and PAN/C18 BioSPME coating. Human plasma and buffer were spiked at a therapeutically relevant concentration and incubated for one hour at 37° C. while shaking at 300 rpm. After the incubation, 200 μL plasma and buffer were loaded into separate columns on to the extraction well plate (n=8). The determination of the protein binding was determined by automated robotic method using the BioSPME C18 96-pin tool. Briefly, the pin tool is conditioned for twenty minutes static in isopropanol, then it is transferred into a new well plate for 10 seconds in water (wash step). This is followed by the extraction step. The pin tool is transferred into the preloaded extraction plate described earlier. Here, the pin tool extracts the analytes while shaking at 1200-1250 rpm at 37° C. for 15 minutes. The pin tools return to the water solution for a 60 seconds wash and finally transferred into a desorption plate. The desorption solution is a 80:20 methanol:water and desorbs for 20 minutes under static conditions. Samples were analyzed using methods described in Tables 5 and 6.
(§2) The extraction plates used in this study included both plastic and glass-coated plates. The choice of the plate depended on the compound properties and how well the compound behaved in buffer solution.
(§3) Determination of % Free Fraction (Fu) by BioSPME
(§4) BioSPME method determines the free concentration of analyte in plasma by comparing it with the extraction of the analyte from buffer samples where 100% of the analyte is considered to be free of protein biding.
(§5) The percent free or percent unbound is determined in Eq. 1:
(§6) where concentration free represents the unbound concentration of the analyte in the matrix in this case plasma, and concentration total represents the total concentration of analyte. The amount extracted is independent of units and can be applied using preferred quantities (e.g. nanograms or moles) Mfree, and extraction volume of plasma, Vplasma. The concentration of analyte in the desorption solution is quantified by an external calibration curve, and if the desorption volume is equal to the plasma and buffer extraction volumes, the concentration from desorption will be equal to the extracted concentration as shown in Eq 2.
(§7) The bound fraction, FB, can be determined from the extracted concentrations as shown in Eq 6.
(§8) In cases where depletion of compounds from plasma was pronounced upon BioSPME extraction (extraction exceeded 5% of total spiked analyte), a correction to the calculated Bound Fraction was required as described below:
(§9) where B and P, represent the respective amounts extracted from buffer, B, and plasma, P. B^0 represents the concentration the samples were spiked originally.

in vitro = settings: human
Description: as §1, §2, §3, §4, §5, §6, §7, §8, §9

[2] = Non-specific binding to plastic extraction plates; assay type: in vitro ADME; settings: plastic versus glass-coated 96-well extraction plates, buffer solution
Source text: as §2

[3] = human plasma, spiked 100 ng/mL, 200 μL sample, 37° C., n = 8

Row | SMILES | Physiological Charge [1] | Ave. Buffer Extracted (Human plasma; 15 min, 100 ng/mL) | Ave. Plasma Extracted (Human plasma; human, 15 min, 100 ng/mL) | Ave. FB(%) (bound fraction) (Human plasma; human, 1 h, 100 ng/mL) | fraction unbound at 1 h, 100 ng/mL (in vitro; plasma) | further results
1 | O=C1CC2(CCCC2)CC(=O)N1CCCCN1CCN(c2ncccn2)CC1 [Buspirone] | – | – | – | – | – | pKa [1]: 4.12
2 | NC(=O)N1c2ccccc2C=Cc2ccccc21 [Carbamazepine] | 0 | 34.7 ng/mL | 8.2 ng/mL | 76.4% | 0.236 | –
3 | CC[C@H]1OC(=O)[C@H](C)[C@@H](O[C@H]2C[C@@](C)(OC)[C@@H](O)[C@H](C)O2)[C@H](C)[C@@H](O[C@@H]2O[C@H](C)C[C@H](N(C)C)[C@H]2O)[C@](C)(O)C[C@@H](C)C(=O)[C@H](C)[C@@H](O)[C@]1(C)O [Erythromycin] | – | 35.0 ng/mL | 6.5 ng/mL | 81.8% | 0.182 | –
4 | CN(C)CCCN1c2ccccc2CCc2ccccc21 [Imipramine] | 1 | 65.4 ng/mL | 12.2 ng/mL | – | – | non-specific binding to plastic [2]: exhibit non-specific biding to plastic; Ave. FB(%) (bound fraction) (Human plasma; [3]): 92.6%; fraction unbound at 1 h, 100 ng/mL (in vitro; human plasma): 0.074
5 | CC(=O)N1CCN(c2ccc(OCC3COC(Cn4ccnc4)(c4ccc(Cl)cc4Cl)O3)cc2)CC1 (centres unmarked) [Ketoconazole] | 0 | – | – | – | – | pKa [1]: 6.75; non-specific binding to plastic [2]: exhibit non-specific biding to plastic; Ave. Buffer Extracted (Human plasma; 15 min, 500 ng/mL): 282.4 ng/mL; Ave. FB(%) (bound fraction) (Human plasma; human plasma, spiked 500 ng/mL, 200 μL sample, 37° C., n = 8): 96.8%; Ave. Plasma Extracted (Human plasma; human, 15 min, 500 ng/mL): 20.0 ng/mL; fraction unbound at 1 h, 500 ng/mL (in vitro; human plasma): 0.032
6 | CCn1cc(C(=O)O)c(=O)c2ccc(C)nc21 [Nalidixic Acid] | – | – | – | – | – | Log P [1]: 1.59; Ave. Buffer Extracted (Human plasma; 15 min, 2000 ng/mL): 16.35 ng/mL; Ave. Plasma Extracted (Human plasma; human, 15 min, 2000 ng/mL): 0.5 ng/mL; Ave. FB(%) (bound fraction) (Human plasma; human, 1 h, 2000 ng/mL): 97.0%; fraction unbound at 1 h, 2000 ng/mL (in vitro; plasma): 0.03
7 | CC(C)NCC(O)COc1cccc2ccccc12 (centres unmarked) [Propranolol] | 1 | 18.3 ng/mL | 1.7 ng/mL | 90.5% | 0.095 | –
8 | CC(=O)CC(c1ccccc1)c1c(O)c2ccccc2oc1=O (centres unmarked) [Warfarin] | – | – | – | – | – | Ave. Buffer Extracted (Human plasma; 15 min, 2500 ng/mL): 10.0 ng/mL; Ave. Plasma Extracted (Human plasma; human, 15 min, 2500 ng/mL): <0.1 ng/mL; Ave. FB(%) (bound fraction) (Human plasma; human, 1 h, 2500 ng/mL): 99.8%; fraction unbound at 1 h, 2500 ng/mL (in vitro; plasma): 0.002
9 | Cc1ccc(-c2nc3ccc(C)cn3c2CC(=O)N(C)C)cc1 [Zolpidem] | 0 | – | – | – | 0.031 | Ave. Buffer Extracted (Human plasma; buffer, spiked 100 ng/mL, 200 μL sample, n = 8): 68.4 ng/mL; Ave. FB(%) (bound fraction) (Human plasma; [3]): 96.9%; Ave. Plasma Extracted (Human plasma; human plasma, spiked 100 ng/mL, 200 μL sample, n = 8): 2.1 ng/mL
10 | C[C@]12C=CC(=O)C=C1CC[C@@H]1[C@@H]2[C@@H](O)C[C@@]2(C)[C@H]1CC[C@]2(O)C(=O)CO [prednisolone] | 0 | 62.1 ng/mL | 13.5 ng/mL | 78.2% | 0.218 | –

Reference: patent US20240009651A1, “PRE-COATINGS FOR BIOCOMPATIBLE SOLID PHASE MICROEXTRACTION DEVICES” (SIGMA-ALDRICH CO. LLC, priority 2020, published 2024)
